In the experiment the test system is D. citri. The class given is in vivo, Diaphorina citri. Particulars: four-arm olfactometer; for Percentage of individuals that chose each compound, final choice / Percentage of individuals that chose each compound, first choice: 10 μL pure compound in two arms versus clean air in two arms, 5 min observation; for Behavioural response of psyllids to pure compound (in words): 10 μL pure compound versus clean air.

From US9572349B2 (priority 2009, dated 2017) come the findings set out here.

Turning to `CC1=CC[C@H]2[C@H]3[C@@H]1[C@]2(C)CC[C@H]3C(C)C` [α-copaene], the “Percentage of individuals that chose each compound, final choice” value is 33.0%; the “Percentage of individuals that chose each compound, first choice” value is reported as 42.0%; the “Behavioural response of psyllids to pure compound (in words)” value was “higher level of psyllids entering the unscented arm”.

As for `C=C1CC/C=C(\C)CC[C@@H]2[C@@H]1CC2(C)C` [β-caryophyllene], the “Percentage of individuals that chose each compound, final choice” value is 32.0%; the “Percentage of individuals that chose each compound, first choice” value turned out to be 42.3%; the “Behavioural response of psyllids to pure compound (in words)” value is on record as “higher level of psyllids entering the unscented arm”.
